Results from US12116636B2, “Methods for evaluating tumor cell spheroids using 3D microfluidic cell culture device” (Dana-Farber Cancer Institute, Inc., priority 2017, dated 2024).
Where two headings read alike, the source gives them in different places.

What was measured:
[1] = tested on: human CD4+ and CD8+ T cells; assay: IFNγ in supernatant of anti-CD3/anti-CD28 stimulated T cells; assay type: cell-based; settings: dose-titration, 96 hours
Description: Freshly isolated human CD4+ and CD8+ T cells were obtained from AllCells (Alameda, CA, USA). Cells were spun down and resuspended in serum free Xvivol5 media (Lonza Walkersville, Inc., Chicago, IL, USA) supplemented with 5 ng/mL […] and incubated overnight at 37° C. Cells were plated on anti-CD3 coated plates (5 μg/mL OKT3, eBioscience™, Dallas, TX, USA, overnight) with 2 μg/mL anti-CD28 (eBioscience™, Dallas, TX, USA). Cells are treated in replicate plates with a dose-titration of Compound 1 for 24 hours for IL-2 and 96 hours for IFNT. IL-2 and IFNγ in the supernatant were measured using single- or multi-plex immunoassay (Mesoscale Discovery, Rockville, MD, USA). Jurkat T cell leukemia cells (clone E61 obtained from ATCC) plated on anti-CD3 coated plates were treated with a dose titration of Compound 1 for 24 hours. IL-2 in the supernatant was measured as described above.

off-target kinases [2] = molecular target: off-target kinases (Homo sapiens, UniProt Q16644); assay: SelectScreen Kinase Profiling, biochemical single point inhibition; settings: MAPKAPK3, ATP Km app, ZLYTE
Description: (§1) Biochemical single point inhibition and IC50 concentrations for TBK1, IKKε (IKBKE), and off-target kinases were determined at ThermoFisher Scientific using SelectScreen Kinase Profiling Services (Madison, WI, USA) (Tables S4A and S4B-1-7). To determine cellular potency, the human colorectal cancer carcinoma cell line HCT116 (ATCC, Manassas, VA) was maintained in T175 flasks in complete RPMI medium; RPMI 1640 supplemented with 10% FBS, 1× Penicillin-Streptomycin solution and 1× MEM (non-essential amino acids). HCT116 cells were grown to 90-95% confluency in T175 flasks containing complete RPMI medium and transfected in bulk using Lipofectamine 2000 (Invitrogen, Carlsbad, CA) with 70 μg of ISG54-luciferase reporter plasmid (Elim Biopharmaceuticals Inc., Hayward, CA). The reporter plasmid contains a luciferase gene expression cassette under the transcriptional regulation of the promoter of the human interferon stimulated gene 54 (ISG54). Transfection of the cells was allowed to take place for 6 hours, after which the cells were harvested by treatment with 0.25% trypsin EDTA (Corning Inc., Corning, NY). Trypsinized cells were added to 384-well poly-d-lysine treated black clear bottom tissue culture assay plates (Greiner Bio-One GmbH, Kremsmunster, Austria) at a density of 20,000 cells/well in 80 μL of complete RPMI medium and incubated overnight. After 16-18 hours post-transfection, the assay plates were washed with PBS (Corning Inc., Corning, NY), followed by addition of 80 μL/well of serum-free RPMI 1640 medium containing 1× Penicillin-Streptomycin solution, 1× MEM and 350 nL of DMSO or titrations of Compound 1. Compound 1 titrations were generated by 1.5-fold dilution steps in two overlapping serial dilution series to generate a 40-point compound dose range. After incubation at 37° C. for 1 hour, the cells were stimulated with Poly(I:C) (InvivoGen, San Diego, CA) at a final concentration of 15 μg/mL in Optimem media (Life Technologies, Rockville, MD). The assay plates were incubated for 5 hours at 37° C., followed by addition of One-Glo luciferase firefly reagent (Promega, Madison, WI) at 1:1 volume/well and luminescence was measured in an EnVision Multilabel Plate Reader (PerkinElmer, Santa Clara, CA). The EC50 values were calculated from the fit of the dose-response curves to a four-parameter equation. All EC50 values represent geometric mean values of a minimum of four determinations.

off-target kinases [3] = molecular target: T1, off-target kinases (Homo sapiens, UniProt Q02156); assay: as above; settings: ATP Km, ZLYTE
T1 sequence (Q02156 1-737): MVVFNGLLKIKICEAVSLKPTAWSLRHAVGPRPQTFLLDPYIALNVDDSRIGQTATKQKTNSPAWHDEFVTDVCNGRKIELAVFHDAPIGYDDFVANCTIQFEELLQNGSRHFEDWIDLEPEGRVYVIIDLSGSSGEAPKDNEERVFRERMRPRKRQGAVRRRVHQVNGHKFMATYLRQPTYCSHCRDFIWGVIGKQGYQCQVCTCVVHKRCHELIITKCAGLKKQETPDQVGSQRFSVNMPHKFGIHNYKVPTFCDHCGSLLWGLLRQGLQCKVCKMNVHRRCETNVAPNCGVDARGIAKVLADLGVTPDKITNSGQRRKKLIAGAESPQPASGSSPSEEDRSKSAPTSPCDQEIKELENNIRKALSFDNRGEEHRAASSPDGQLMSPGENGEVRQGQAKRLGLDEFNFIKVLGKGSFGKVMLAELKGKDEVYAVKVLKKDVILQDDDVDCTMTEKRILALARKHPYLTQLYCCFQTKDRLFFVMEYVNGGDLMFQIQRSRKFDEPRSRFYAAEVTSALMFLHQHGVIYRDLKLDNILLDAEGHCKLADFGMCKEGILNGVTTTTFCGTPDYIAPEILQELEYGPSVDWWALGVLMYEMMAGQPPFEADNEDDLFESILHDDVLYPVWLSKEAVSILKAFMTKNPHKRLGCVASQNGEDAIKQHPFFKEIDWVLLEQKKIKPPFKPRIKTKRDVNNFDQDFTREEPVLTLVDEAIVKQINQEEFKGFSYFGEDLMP
Description: as §1

off-target kinases [4] = assay: as above; settings: 1000 μM
Description: as §1

[5] = EGFR (ErbB1) d746-750 (mutant), LanthaScreen Binding
[6] = PRKCB2 (PKC beta II), ATP Km app, ZLYTE
[7] = TEK (TIE2) mutant (mutation name not given), LanthaScreen

off-target kinases (Homo sapiens, UniProt Q16644), sequence (Q16644 whole entry): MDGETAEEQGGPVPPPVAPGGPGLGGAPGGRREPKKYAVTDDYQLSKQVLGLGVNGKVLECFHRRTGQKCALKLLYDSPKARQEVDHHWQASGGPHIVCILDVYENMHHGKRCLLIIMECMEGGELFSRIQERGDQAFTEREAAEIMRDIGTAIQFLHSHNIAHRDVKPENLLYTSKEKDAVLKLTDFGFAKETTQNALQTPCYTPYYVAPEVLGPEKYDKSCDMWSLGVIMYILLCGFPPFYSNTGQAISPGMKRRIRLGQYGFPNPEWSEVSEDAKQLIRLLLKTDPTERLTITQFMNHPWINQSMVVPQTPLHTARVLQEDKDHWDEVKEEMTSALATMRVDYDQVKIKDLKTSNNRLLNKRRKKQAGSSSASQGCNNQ

N#Cc1cc(-c2ncnc(Nc3ccc(N4CCN(C5COC5)CC4)cc3)n2)ccc1OC1CCOCC1 [Compound 1, 5-(4-((4-(4-(oxetan-3-yl)piperazin-1-yl)phenyl)amino)-1,3,5-triazin-2-yl)-2-((tetrahydro-2H-pyran-4-yl)oxy)benzonitrile]
secretion of IFN-7 from purified CD4+ and CD8+ T cells [1]: enhanced secretion
inhibition (off-target kinases [2]; read-out: % Inhibition 1): 1%
inhibition (off-target kinases [2]; read-out: % Inhibition 2): -8%
inhibition (off-target kinases [2]; read-out: % Inhibition Avg): -3%
inhibition (off-target kinases [3]; PRKCE (PKC), read-out: % Inhibition 1): 1%
inhibition (off-target kinases [3]; PRKCE (PKC), read-out: % Inhibition Avg): -3%
inhibition (off-target kinases [3]; PRKCE PKC, read-out: % Inhibition 2): -6%
% Inhibition 1 (off-target kinases [4]; [5]): 14%
% Inhibition 2 (off-target kinases [4]; [5]): 13%
% Inhibition Avg (off-target kinases [4]; [5]): 14%
% Inhibition 1 (off-target kinases [4]; FLT3 ITD, LanthaScreen Binding): 64%
% Inhibition 2 (off-target kinases [4]; FLT3 ITD, LanthaScreen Binding): 62%
% Inhibition Avg (off-target kinases [4]; FLT3 ITD, LanthaScreen Binding): 63%
% Inhibition 1 (off-target kinases [4]; FYN A, LanthaScreen Binding): 16%
% Inhibition Avg (off-target kinases [4]; FYN A, LanthaScreen Binding): 18%
% Inhibition 1 (off-target kinases [4]; LYN B, ATP Km app, ZLYTE): 56%
% Inhibition 2 (off-target kinases [4]; LYN B, ATP Km app, ZLYTE): 50%
% Inhibition Avg (off-target kinases [4]; LYN B, ATP Km app, ZLYTE): 53%
% Inhibition 2 (off-target kinases [4]; MAP3K7/MAP3K7IP1 (TAK1-TAB1), LanthaScreen Binding): 22%
% Inhibition 1 (off-target kinases [4]; [6]): 12%
% Inhibition 2 (off-target kinases [4]; [6]): 8%
% Inhibition Avg (off-target kinases [4]; [6]): 10%
% Inhibition 1 (off-target kinases [4]; SRC N1, ATP Km app, ZLYTE): 54%
% Inhibition 2 (off-target kinases [4]; SRC N1, ATP Km app, ZLYTE): 60%
% Inhibition Avg (off-target kinases [4]; SRC N1, ATP Km app, ZLYTE): 57%
% Inhibition 1 (off-target kinases [4]; [7]): 40%
% Inhibition 2 (off-target kinases [4]; [7]): 41%
% Inhibition Avg (off-target kinases [4]; [7]): 41%
